Data published in patent US8349851B2, “JAK kinase modulating compounds and methods of use thereof” (Ambit Biosciences Corp., priority 2009, dated 2013).

Key:
[1] = system: csTF-1 cells (GM-CSFR/JAK2/STAT5 pathway); test: csTF-1 cell-based reporter assay; set-up: species or system human; conditions: Homo sapiens; GM-CSF at 2 ng/mL, 4 hours; read-out: Cell Assay: CS0017: CS TF-1 reporter assay: IC50
Method: csTF-1 Cell-based Reporter Assay
csTF-1 cells are derived from the human erythroleukemia cell line that is growth dependent on GM-CSF and has an intact GM-CSFR/JAK2/STAT5 pathway. The cell line contains stably integrated beta-lactamase reporter gene under the control of the […] (irf 1) response element recognized by the activated transcription factor STATS. csTF-1 cells (Invitrogen K1219) were washed with assay media (97% OPTIMEM/0.5% dialyzed FBS/0.1 mM NEAA/1 mM Na pyr/P/S) and seeded in the same media at 5×10^5 cell/mL in T150 flask. After 16 hour incubation, cells were seeded at 2×10^5 cell/well in 50 μl volume, into Costar, clear bottom, 96-well assay plates. Serial dilutions of compounds were added to the plates with final DMSO concentration at 0.5% and GM-CSF at 2 ng/mL and the plates were then incubated at […] and 5% CO2 for 4 hours. The plates were brought to room temperature before adding Substrate Mixture according to manufacturer's protocol (Invitrogen, Catalog #K1085). The assay plates containing the substrate mixture were incubated in the dark at room temperature for 2 hours. Blue and green fluorescence was measured with excitation at 409 nm and emission at 460 nm (for blue) and excitation at 409 nm and emission at 530 nm (for green) using Spectra Max Gemini EM.

JAK3 = molecular target: T1, JAK3 (Homo sapiens, UniProt P52333); test: Competition binding assay, JAK3; conditions: read-out: Binding Assay: JAK3 (active_KD, ENZ)
T1 construct: made in house
T1 sequence (P52333 822-1111 limits assumed): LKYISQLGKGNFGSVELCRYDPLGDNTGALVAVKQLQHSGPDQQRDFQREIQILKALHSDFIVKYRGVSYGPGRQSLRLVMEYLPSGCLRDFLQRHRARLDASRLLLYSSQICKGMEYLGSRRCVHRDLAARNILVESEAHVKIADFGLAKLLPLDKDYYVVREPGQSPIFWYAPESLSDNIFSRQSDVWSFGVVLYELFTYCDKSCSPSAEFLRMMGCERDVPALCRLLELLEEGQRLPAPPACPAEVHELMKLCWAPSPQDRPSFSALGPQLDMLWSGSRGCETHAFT
Text: (§1) Competition Binding Assay to Determine Binding Constants (Kd) of the Compounds Against JAK Kinases
(§2) Competition binding assays used herein were developed, validated and performed as described in Fabian et al., Nature Biotechnology 2005, 23,329-336. Kinases were produced as fusions to T7 phage (See, Fabian et al. or WO04/015142) or alternatively, the kinases were expressed in HEK-293 cells and subsequently tagged with DNA for PCR detection (See, WO08/005310). For the binding assays, streptavidin-coated magnetic beads were treated with biotinylated affinity ligands for 30 min at rt to generate affinity resins. The liganded beads were blocked with excess biotin and washed with blocking buffer (SeaBlock (Pierce), 1% BSA, 0.05% Tween 20, 1 mM DTT) to remove unbound ligand and to reduce non-specific binding. […] Test compounds were prepared as 100× stocks in DMSO and rapidly diluted into the aqueous environment. DMSO was added to control assays lacking a test compound. Primary screen interactions were performed in polypropylene 384-well plates in a final volume of 34 μL, while Kd determinations were performed in polystyrene 96-well plates in a final volume of 135 μL. […] The kinase concentration in the eluates was measured by quantitative PCR. Each kinase was tested individually against each compound. Kds were determined using eleven serial threefold dilutions. A selectivity score, which is a quantitative measure of selectivity of a compound against a panel of enzymes, may be calculated for a compound by dividing the number of enzymes for which a compound meets a set criteria, (for example, a binding constant of 100 nM or less), by the total number of enzymes tested.

JAK2 = molecular target: T2, JAK2 (Homo sapiens, UniProt O60674); test: Competition binding assay, JAK2; conditions: read-out: Binding Assay: JAK2 (active_KD)
T2 construct: made in house
T2 sequence (O60674 849-1124 limits assumed): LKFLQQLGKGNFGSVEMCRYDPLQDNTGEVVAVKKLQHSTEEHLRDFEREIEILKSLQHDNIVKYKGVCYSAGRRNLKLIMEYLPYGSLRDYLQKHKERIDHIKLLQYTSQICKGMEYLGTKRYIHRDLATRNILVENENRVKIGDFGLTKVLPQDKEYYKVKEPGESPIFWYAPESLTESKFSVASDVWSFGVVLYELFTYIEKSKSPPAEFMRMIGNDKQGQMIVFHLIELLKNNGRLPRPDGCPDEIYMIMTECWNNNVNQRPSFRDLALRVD
Text: as §1, §2

AuroraB = molecular target: T3, AuroraB (Homo sapiens, UniProt Q96GD4); test: Competition binding assay, Aurora B
T3 construct: made in house
T3 sequence (Q96GD4 whole entry): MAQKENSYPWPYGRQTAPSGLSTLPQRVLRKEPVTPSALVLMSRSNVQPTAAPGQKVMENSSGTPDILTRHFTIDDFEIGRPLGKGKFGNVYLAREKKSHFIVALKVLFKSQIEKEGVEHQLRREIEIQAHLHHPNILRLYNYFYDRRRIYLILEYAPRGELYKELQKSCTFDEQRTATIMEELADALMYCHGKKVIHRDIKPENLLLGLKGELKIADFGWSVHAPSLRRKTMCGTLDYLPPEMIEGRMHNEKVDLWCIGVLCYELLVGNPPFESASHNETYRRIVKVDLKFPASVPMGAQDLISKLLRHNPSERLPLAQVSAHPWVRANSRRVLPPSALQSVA
Text: Methods for determining binding constant against Aurora B kinase are known to one of skill in the art. Exemplary methods are described in U.S. provisional application No. 61/294,413, and Fabian et al., Nature Biotechnology 2005, 23,329-336.
as §2

SMILES	IC50 [1] [µM]	Kd (JAK3) [µM]	Kd (JAK2) [µM]	Kd (AuroraB) [µM]
COC(=O)NC(c1ccc(F)cc1)c1nc(Nc2cc(C)[nH]n2)c2ccccc2n1 (racemic) [Example 45, (R,S)-methyl (4-fluorophenyl)(4-(5-methyl-4H-pyrazol-3-ylamino)quinazolin-2-yl) methylcarbamate]	0.1 to 0.5	0.01 to 0.1	≤ 0.001	> 0.2
Cc1cc(Nc2nc(C(O)c3ccc(F)cc3)nc3c(C)cccc23)n[nH]1 (racemic) [Example 46, (R,S)-(4-fluorophenyl)(8-methyl-4-(5-methyl-1H-pyrazol-3-ylamino)quinazolin-2-yl)methanol]	0.1 to 0.5	0.01 to 0.1	≤ 0.001	> 0.2
Cc1cc(Nc2nc(C(O)c3ccc(F)cc3)nc3cc(F)ccc23)n[nH]1 (racemic) [Example 47, (R,S)-(7-fluoro-4-(5-methyl-1H-pyrazol-3-ylamino)quinazolin-2-yl)(4-fluorophenyl)methanol]	0.1 to 0.5	0.01 to 0.1	≤ 0.001	> 0.2
Cc1cc(Nc2nc(C(O)c3ccc(F)cc3)nc3cc(Cl)ccc23)n[nH]1 (racemic) [Example 52, (R,S) (7-chloro-4-(5-methyl-1H-pyrazol-3-ylamino)quinazolin-2-yl)(4-fluorophenyl)methanol]	≤ 0.1	0.01 to 0.1	0.001 to 0.01	> 0.2
Cc1cc(Nc2nc(C(=O)c3cccc(F)c3)nc3ccccc23)n[nH]1 [Example 1, (3-fluorophenyl)(4-(5-methyl-1H-pyrazol-3-ylamino)quinazolin-2-yl)methanone]	0.1 to 0.5	0.01 to 0.1	0.001 to 0.01	> 0.2
O=C(c1cccc(F)c1)c1nc(Nc2cc[nH]n2)c2ccccc2n1 [Example 2, (4-(1H-pyrazol-3-ylamino)quinazolin-2-yl)(3-fluorophenyl)methanone]	> 0.5	> 0.1	> 0.01	> 0.2
Cc1cc(Nc2nc(C(=O)c3ccc(F)cc3)nc3ccccc23)n[nH]1 [Example 3, (4-fluorophenyl)(4-(5-methyl-1H-pyrazol-3-ylamino)quinazolin-2-yl)methanone]	≤ 0.1	0.01 to 0.1	≤ 0.001	> 0.2
O=C(c1ccc(F)cc1)c1nc(Nc2cc[nH]n2)c2ccccc2n1 [Example 4, (4-(1H-pyrazol-3-ylamino)quinazolin-2-yl)(4-fluorophenyl)methanone]	≤ 0.1	0.01 to 0.1	≤ 0.001	> 0.2
COc1ccccc1C(=O)c1nc(Nc2cc[nH]n2)c2ccccc2n1 [Example 5, (4-(1H-pyrazol-3-ylamino)quinazolin-2-yl)(2-methoxyphenyl)methanone]	0.1 to 0.5	> 0.1	0.001 to 0.01	> 0.2
Cc1cc(Nc2nc(C(F)(F)c3ccc(F)cc3)nc3ccccc23)n[nH]1 [Example 8, 2-(difluoro(4-fluorophenyl)methyl)-N-(5-methyl-1H-pyrazol-3-yl)quinazolin-4-amine]	≤ 0.1	≤ 0.01	≤ 0.001	> 0.2
Fc1ccc(C(F)(F)c2nc(Nc3cc[nH]n3)c3ccccc3n2)cc1 [Example 9, 2-(difluoro(4-fluorophenyl)methyl)-N-(1H-pyrazol-3-yl)quinazolin-4-amine]	≤ 0.1	0.01 to 0.1	≤ 0.001	> 0.2
Fc1ccc(C(F)(F)c2nc(Nc3cc(C4CC4)[nH]n3)c3ccccc3n2)cc1 [Example 10, N-(5-cyclopropyl-1H-pyrazol-3-yl)-2-(difluoro(4-fluorophenyl)methyl)quinazolin-4-amine]	≤ 0.1	≤ 0.01	0.001 to 0.01	> 0.2
Cc1cc(Nc2nc(C(=O)c3ccc(F)cc3)nc3cc(C(F)(F)F)ccc23)n[nH]1 [Example 17, (4-fluorophenyl)(4-(5-methyl-1H-pyrazol-3-ylamino)-7-(trifluoromethyl)quinazolin-2-yl)methanone]	0.1 to 0.5	> 0.1	> 0.01	> 0.2
Cc1cc(Nc2nc(C(=O)c3ccc(F)cc3)nc3cc(F)ccc23)n[nH]1 [Example 19, (7-fluoro-4-(5-methyl-1H-pyrazol-3-ylamino)quinazolin-2-yl)(4-fluorophenyl)methanone]	≤ 0.1	0.01 to 0.1	0.001 to 0.01	> 0.2
Cc1cc(Nc2nc(C(F)(F)c3ccc(F)cc3)nc3cc(F)ccc23)n[nH]1 [Example 20, 2-(difluoro(4-fluorophenyl)methyl)-7-fluoro-N-(5-methyl-1H-pyrazol-3-yl)quinazolin-4-amine]	≤ 0.1	0.01 to 0.1	≤ 0.001	> 0.2
Cc1ccc2c(Nc3cc(C)[nH]n3)nc(C(=O)c3ccc(F)cc3)nc2c1 [Example 24, (4-fluorophenyl)(7-methyl-4-(5-methyl-1H-pyrazol-3-ylamino)quinazolin-2-yl)methanone]	≤ 0.1	0.01 to 0.1	≤ 0.001	> 0.2
Cc1ccc2c(Nc3cc(C)[nH]n3)nc(C(F)(F)c3ccc(F)cc3)nc2c1 [Example 26, 2-(difluoro(4-fluorophenyl)methyl)-7-methyl-N-(5-methyl-1H-pyrazol-3-yl)quinazolin-4-amine]	≤ 0.1	≤ 0.01	≤ 0.001	> 0.2
COc1ccc2c(Nc3cc[nH]n3)nc(C(=O)c3ccc(F)cc3)nc2c1 [Example 28, (4-(1H-pyrazol-3-ylamino)-7-methoxyquinazolin-2-yl)(4-fluorophenyl)methanone]	0.1 to 0.5	> 0.1	0.001 to 0.01	> 0.2
COc1ccc2c(Nc3cc(C)[nH]n3)nc(C(=O)c3ccc(F)cc3)nc2c1 [Example 30, (4-fluorophenyl)(7-methoxy-4-(5-methyl-1H-pyrazol-3-ylamino)quinazolin-2-yl)methanone]	≤ 0.1	0.01 to 0.1	0.001 to 0.01	> 0.2
COc1ccc2c(Nc3cc(C)[nH]n3)nc(C(F)(F)c3ccc(F)cc3)nc2c1 [Example 32, 2-(difluoro(4-fluorophenyl)methyl)-7-methoxy-N-(5-methyl-1H-pyrazol-3-yl)quinazolin-4-amine]	≤ 0.1	0.01 to 0.1	≤ 0.001	> 0.2
COc1ccc2c(Nc3cc[nH]n3)nc(C(F)(F)c3ccc(F)cc3)nc2c1 [Example 33, 2-(difluoro(4-fluorophenyl)methyl)-7-methoxy-N-(1H-pyrazol-3-yl)quinazolin-4-amine]	0.1 to 0.5	> 0.1	0.001 to 0.01	0.05 to 0.2
Cc1cc(Nc2nc(C(F)(F)c3ccc(F)cc3)nc3c(F)cccc23)n[nH]1 [Example 34, 2-(difluoro(4-fluorophenyl)methyl)-8-fluoro-N-(5-methyl-1H-pyrazol-3-yl)quinazolin-4-amine]	≤ 0.1	0.01 to 0.1	≤ 0.001	> 0.2
COc1cccc2c(Nc3cc[nH]n3)nc(C(=O)c3ccc(F)cc3)nc12 [Example 35, (4-(1H-pyrazol-3-ylamino)-8-methoxyquinazolin-2-yl)(4-fluorophenyl)methanone]	> 0.5	> 0.1	> 0.01	0.05 to 0.2
